Values of other authors as cited in patent publication US20190374552A1, “MULTIFUNCTIONAL FORMULATIONS AND METHODS TO CONTROL DERMATITIS AND PRURITUS” (priority 2016, published 2019).
“Also recorded” adds a separate entry of the source.

Key:
human TRPM8 (hTRPM8) = human TRPM8 (hTRPM8) (Homo sapiens, UniProt Q7Z2W7)
hTRPV2 = biological target: T1, hTRPV2 (Homo sapiens, UniProt Q9Y5S1)
T1 sequence (Q9Y5S1 1-764): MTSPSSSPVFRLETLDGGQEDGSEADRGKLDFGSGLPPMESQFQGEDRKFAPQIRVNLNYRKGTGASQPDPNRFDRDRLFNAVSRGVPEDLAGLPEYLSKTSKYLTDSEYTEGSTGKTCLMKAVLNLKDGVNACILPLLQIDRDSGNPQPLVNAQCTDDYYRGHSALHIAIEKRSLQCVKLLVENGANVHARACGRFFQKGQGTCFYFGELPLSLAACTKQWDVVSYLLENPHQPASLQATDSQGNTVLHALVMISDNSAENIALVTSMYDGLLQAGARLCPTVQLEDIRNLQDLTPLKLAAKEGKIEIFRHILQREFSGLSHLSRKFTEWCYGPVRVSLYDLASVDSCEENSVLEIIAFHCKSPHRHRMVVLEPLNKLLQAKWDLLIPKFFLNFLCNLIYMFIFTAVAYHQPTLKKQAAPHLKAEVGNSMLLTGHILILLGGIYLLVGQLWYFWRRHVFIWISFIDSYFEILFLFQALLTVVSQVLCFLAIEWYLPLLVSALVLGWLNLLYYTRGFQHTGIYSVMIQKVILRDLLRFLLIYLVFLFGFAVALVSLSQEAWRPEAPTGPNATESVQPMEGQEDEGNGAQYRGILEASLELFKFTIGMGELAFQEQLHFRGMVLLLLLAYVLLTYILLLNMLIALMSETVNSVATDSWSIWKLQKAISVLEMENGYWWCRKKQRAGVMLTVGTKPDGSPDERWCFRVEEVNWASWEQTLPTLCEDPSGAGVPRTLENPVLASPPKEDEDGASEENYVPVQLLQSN

TRPA1 [1] = biological target: T2, TRPA1 (Homo sapiens, UniProt O75762)
Target sequence in this assay (O75762 whole entry): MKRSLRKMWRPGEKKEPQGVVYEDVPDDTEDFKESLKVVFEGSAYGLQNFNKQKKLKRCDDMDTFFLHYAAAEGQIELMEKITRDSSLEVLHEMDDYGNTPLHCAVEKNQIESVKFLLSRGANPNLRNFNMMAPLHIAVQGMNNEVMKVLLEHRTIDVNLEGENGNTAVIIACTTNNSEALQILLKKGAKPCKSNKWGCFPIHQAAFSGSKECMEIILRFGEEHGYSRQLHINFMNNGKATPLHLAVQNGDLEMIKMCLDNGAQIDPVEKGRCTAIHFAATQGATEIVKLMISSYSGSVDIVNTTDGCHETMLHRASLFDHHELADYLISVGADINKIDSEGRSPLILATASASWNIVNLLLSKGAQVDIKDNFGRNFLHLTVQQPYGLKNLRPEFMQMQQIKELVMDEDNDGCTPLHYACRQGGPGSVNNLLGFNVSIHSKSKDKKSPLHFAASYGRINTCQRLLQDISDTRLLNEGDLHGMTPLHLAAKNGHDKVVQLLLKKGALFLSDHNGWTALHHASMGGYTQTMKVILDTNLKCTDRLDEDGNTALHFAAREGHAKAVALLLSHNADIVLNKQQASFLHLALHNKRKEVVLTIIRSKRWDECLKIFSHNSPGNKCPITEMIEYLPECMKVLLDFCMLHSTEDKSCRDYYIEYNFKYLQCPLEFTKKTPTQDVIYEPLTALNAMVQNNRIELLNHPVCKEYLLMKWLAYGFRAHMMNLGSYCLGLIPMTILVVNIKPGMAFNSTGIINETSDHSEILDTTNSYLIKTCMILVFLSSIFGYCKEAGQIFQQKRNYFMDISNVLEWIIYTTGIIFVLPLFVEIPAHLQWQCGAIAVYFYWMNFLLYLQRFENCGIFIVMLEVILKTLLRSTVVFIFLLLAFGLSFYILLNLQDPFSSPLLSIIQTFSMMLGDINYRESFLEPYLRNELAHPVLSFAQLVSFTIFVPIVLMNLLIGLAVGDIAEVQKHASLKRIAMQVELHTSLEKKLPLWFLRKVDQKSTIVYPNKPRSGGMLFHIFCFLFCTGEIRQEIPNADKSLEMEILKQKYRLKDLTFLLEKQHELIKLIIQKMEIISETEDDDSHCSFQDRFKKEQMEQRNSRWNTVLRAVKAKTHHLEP

TRPV1 [2] = biological target: T3, TRPV1 (Homo sapiens, UniProt Q8NER1)
Target sequence in this assay (Q8NER1 whole entry): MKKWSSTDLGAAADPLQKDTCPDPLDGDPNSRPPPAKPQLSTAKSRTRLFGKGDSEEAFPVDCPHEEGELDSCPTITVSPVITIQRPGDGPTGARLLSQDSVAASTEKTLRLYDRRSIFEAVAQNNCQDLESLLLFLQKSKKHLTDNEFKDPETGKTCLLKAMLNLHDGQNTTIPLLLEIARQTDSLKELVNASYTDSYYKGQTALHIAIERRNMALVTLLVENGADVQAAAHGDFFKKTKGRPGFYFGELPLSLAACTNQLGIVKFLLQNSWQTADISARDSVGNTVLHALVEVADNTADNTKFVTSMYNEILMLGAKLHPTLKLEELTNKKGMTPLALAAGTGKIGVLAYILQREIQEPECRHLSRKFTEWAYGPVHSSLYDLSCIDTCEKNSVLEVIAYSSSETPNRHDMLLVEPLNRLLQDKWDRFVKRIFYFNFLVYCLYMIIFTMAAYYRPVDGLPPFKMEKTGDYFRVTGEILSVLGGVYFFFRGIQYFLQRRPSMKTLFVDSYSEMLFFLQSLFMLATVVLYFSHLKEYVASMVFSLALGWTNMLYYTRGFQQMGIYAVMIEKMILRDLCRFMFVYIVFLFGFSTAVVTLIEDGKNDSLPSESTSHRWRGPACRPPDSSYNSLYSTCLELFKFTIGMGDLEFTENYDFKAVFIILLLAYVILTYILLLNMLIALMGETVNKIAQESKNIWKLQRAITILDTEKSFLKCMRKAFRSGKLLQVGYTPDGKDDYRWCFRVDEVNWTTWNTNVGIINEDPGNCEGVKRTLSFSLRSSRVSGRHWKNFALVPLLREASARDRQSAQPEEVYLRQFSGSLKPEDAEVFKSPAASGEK

TRPA1 [3] = biological target: T2, TRPA1; details: for inhibition of hTRPA1 activation by menthol and allyl isothiocyanate: compound at 1 mM, menthol 1 mM, allyl isothiocyanate 10 uM
Target sequence in this assay (O75762 whole entry): as the sequence (O75762 whole entry) above

TRPA1 [4] = biological target: T2, TRPA1; remark: listed apart in the source
Target sequence in this assay (O75762 whole entry, species assumed): as the sequence (O75762 whole entry) above

TRPV1 [5] = biological target: T3, TRPV1; remark: listed apart in the source
Target sequence in this assay (Q8NER1 whole entry, species assumed): as the sequence (Q8NER1 whole entry) above

histaminergic itch = details: topical application, human trials
scratching behavior ACD = details: mice exposed to haptens oxazolone and urushiol
TRPV1 [6] = biological target: TRPV1 (Rattus norvegicus, UniProt O35433); details: compared with docosahexaenoic acid
leukocyte migration = details: induced by injection of carrageenan
pain and itch responses = details: mice
TRPV1 [7] = tested on: TRPV1
TRPV1 [8] = biological target: T3, TRPV1; remark: listed apart in the source
Target sequence in this assay (Q8NER1 whole entry, species assumed): as the sequence (Q8NER1 whole entry) above

TRPM8 = TRPM8 (Homo sapiens, UniProt Q7Z2W7)
TRPA1 [9] = biological target: T2, TRPA1; remark: listed apart in the source
Target sequence in this assay (O75762 whole entry, species assumed): as the sequence (O75762 whole entry) above

Chain of human TRPM8 (hTRPM8) (Q7Z2W7 whole entry): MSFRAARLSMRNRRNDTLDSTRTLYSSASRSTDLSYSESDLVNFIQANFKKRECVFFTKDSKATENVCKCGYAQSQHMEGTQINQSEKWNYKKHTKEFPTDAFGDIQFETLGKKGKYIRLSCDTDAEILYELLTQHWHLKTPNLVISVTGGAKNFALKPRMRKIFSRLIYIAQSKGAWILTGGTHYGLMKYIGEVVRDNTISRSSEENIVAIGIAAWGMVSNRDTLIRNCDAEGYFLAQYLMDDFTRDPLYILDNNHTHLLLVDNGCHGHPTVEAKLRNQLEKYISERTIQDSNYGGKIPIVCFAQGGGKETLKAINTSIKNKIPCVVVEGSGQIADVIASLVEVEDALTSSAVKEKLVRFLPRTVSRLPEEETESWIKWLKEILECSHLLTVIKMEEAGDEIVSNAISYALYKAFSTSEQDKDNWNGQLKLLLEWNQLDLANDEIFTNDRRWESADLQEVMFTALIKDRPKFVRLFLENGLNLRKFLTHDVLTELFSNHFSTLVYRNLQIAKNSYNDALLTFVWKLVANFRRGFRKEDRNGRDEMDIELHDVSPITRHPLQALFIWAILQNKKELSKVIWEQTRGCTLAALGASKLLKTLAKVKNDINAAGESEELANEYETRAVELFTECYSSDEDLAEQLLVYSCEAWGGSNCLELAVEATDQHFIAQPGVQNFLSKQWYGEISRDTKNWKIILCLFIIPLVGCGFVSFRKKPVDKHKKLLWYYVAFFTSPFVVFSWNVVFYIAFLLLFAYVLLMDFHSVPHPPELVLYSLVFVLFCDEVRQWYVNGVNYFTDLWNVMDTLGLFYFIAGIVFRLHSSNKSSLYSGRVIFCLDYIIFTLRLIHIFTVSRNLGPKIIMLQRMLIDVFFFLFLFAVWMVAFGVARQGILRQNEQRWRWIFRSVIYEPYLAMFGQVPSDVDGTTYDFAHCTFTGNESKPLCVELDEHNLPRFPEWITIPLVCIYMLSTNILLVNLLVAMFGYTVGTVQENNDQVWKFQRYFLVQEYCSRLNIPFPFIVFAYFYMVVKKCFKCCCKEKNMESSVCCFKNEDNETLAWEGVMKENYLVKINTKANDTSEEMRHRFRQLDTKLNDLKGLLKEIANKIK
Chain of TRPV1 (Rattus norvegicus, UniProt O35433) (O35433 whole entry): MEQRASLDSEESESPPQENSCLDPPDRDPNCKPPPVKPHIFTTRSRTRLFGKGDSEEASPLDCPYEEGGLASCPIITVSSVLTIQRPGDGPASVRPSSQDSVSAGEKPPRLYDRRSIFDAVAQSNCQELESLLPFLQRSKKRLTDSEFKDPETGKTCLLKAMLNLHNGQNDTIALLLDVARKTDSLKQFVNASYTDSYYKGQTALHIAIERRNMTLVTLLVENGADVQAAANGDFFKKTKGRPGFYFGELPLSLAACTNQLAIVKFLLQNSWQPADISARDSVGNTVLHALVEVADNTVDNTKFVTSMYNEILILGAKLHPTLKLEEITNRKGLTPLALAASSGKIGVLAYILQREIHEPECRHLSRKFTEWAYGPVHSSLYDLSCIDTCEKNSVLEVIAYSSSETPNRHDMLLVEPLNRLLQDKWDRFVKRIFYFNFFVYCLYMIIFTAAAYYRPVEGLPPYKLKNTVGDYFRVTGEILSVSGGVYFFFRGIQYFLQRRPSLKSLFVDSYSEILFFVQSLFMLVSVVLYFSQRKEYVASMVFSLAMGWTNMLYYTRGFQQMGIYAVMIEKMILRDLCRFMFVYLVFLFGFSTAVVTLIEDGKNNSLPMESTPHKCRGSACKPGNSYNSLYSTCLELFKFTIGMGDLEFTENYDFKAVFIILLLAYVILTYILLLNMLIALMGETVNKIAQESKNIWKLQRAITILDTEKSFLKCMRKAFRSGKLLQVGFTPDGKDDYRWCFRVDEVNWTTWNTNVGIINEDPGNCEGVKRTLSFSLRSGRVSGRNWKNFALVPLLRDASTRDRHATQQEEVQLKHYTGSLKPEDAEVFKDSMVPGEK
Chain of TRPM8 (Q7Z2W7 whole entry, species assumed): as the sequence (Q7Z2W7 whole entry) above

Compound: CC12CCC(CC1)C(C)(C)O2 [1,8-cineole]
- activation of hTRPM8 (human TRPM8 (hTRPM8)): activates
- activation of hTRPV2 (hTRPV2): did not activate
- activation of hTRPA1 (TRPA1 [1]): did not activate
- activation of hTRPV1 (TRPV1 [2]): did not activate
- release of IL-I β, IL-4, IL-5 and TNF-a (stimulated lymphocytes): decreased

Compound: CC1(C)[C@@H]2CC[C@@]1(C)[C@](C)(O)C2 [2-methylosoborneol]
- IC50 (TRPA1 [3]; TRPA1 activation by 20 uM AITC, read-out: IC-50 concentration, inactivation of TRPA1 activation): 120 µM
- inhibition of hTRPA1 activation by menthol and allyl isothiocyanate (TRPA1 [3]): completely inhibited
- activation of hTRPA1 (TRPA1 [1]): did not activate

Compound: O=C(CCCCC1CCSS1)NCCC(=O)NC(Cc1cnc[nH]1)C(=O)O (stereo not shown) [ADM 09]
- block of TRPA1 agonist AITC (TRPA1 [4]): blocked
- block of TRPV1 agonist capsaicin (TRPV1 [5]): blocked

Compound: CC1CCC(C(C)C)C(O)C1 (stereo not shown) [Example 1-menthol, 1-menthol]
- activation of hTRPM8 (human TRPM8 (hTRPM8)): activation
- effect on histaminergic / experimentally induced itch (histaminergic itch): significant inhibitory effects; also recorded: significant and pronounced anti-pruritic effect; also recorded: relieved
- activation of hTRPA1 (TRPA1 [1]): activated

Compound: CC(C)c1ccc(NC(=O)Cn2cnc3c2c(=O)n(C)c(=O)n3C)cc1 [HC-030031]
- scratching behavior (scratching behavior ACD): inhibition of scratching

Compound: CC/C=C\C/C=C\C/C=C\CCCCCCCC(=O)O [a-linolenic acid]
- TRPV1 inhibition (TRPV1 [6]): markedly more effective inhibitors

Compound: CC1(C)C2CCC1(C)C(O)C2 (stereo not shown) [borneol]
- inhibition of hTRPA1 activation by menthol and allyl isothiocyanate (TRPA1 [3]): completely inhibited
- activation of hTRPA1 (TRPA1 [1]): did not activate
- leukocyte migration (leukocyte migration): reduce
- inhibition of TNF-a and IL-6 (TNF-a and IL-6): inhibits

Compound: CC12CCC(CC1=O)C2(C)C (stereo not shown) [camphor]
- activation of hTRPA1 (TRPA1 [1]): did not activate

Compound: CC12CCC(C1)C(C)(C)C2O (stereo not shown) [fenchyl alcohol]
- inhibition of hTRPA1 activation by menthol and allyl isothiocyanate (TRPA1 [3]): completely inhibited
- activation of hTRPA1 (TRPA1 [1]): did not activate

Compound: O=C1CC2CC[C@H]1C2 [norcamphor]
- activation of hTRPA1 (TRPA1 [1]): did not activate

Compound: CCCCCCCC/C=C\CCCCCCCC(=O)O [oleic acid]
- pain and itch responses (pain and itch responses): inhibited
- TRPV1 activity (TRPV1 [7]): inhibited

Compound: Hyaluronan [HA]
- TRPV1 channel activity (TRPV1 [8]): inhibits
- TRPM8 channel function (TRPM8): not affected
- TRPA1 channel function (TRPA1 [9]): not affected
